# Patent US11479546B2, “Antimalarial hexahydropyrimidine analogues” (UCB Biopharma SRL, priority 2018, dated 2022)
# pIC50: −log10 of the molar value.
# Test system: Plasmodium falciparum 3D7
# Assay: P. falciparum 3D7 asexual blood stage assay, Assay Procedure Version 2 (SYBR green readout)
# Format: cell-based
# Settings: Version 2 of the assay procedure (asterisk *), 72 h incubation in infected erythrocytes, 50,000 nM to 15 nM
# How it was run: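 P. falciparum 3D7 in A+ erythrocytes (5% haematocrit, 0.5% parasitaemia) exposed 72 h at 37 °C (1% O2, 3% CO2) to 20-point 1.5-fold titrations, final 50,000–15 nM in 0.5% DMSO. SYBR green in lysis buffer overnight, fluorescence 485/528 nm; % inhibition vs mefloquine and DMSO controls, EC50 from biphasic two-site fit.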
# [1] = Plasmodium falciparum, 3D7, Erythrocyte, 72 h
SMILES,pIC50 [1],pIC50
"C[C@@]1(c2cccc(Nc3cc4ccccc4nc3OC(F)F)c2Cl)CC(=O)N(C2CCOCC2)C(=N)N1 [Example 98, (6S)-6-(2-Chloro-3-{[2-(difluoromethoxy)quinolin-3-yl]amino}phenyl)-2-imino-6-methyl-3-(tetrahydropyran-4-yl)hexahydropyrimidin-4-one]",6.65,–
"CC(=O)N1CCc2cc(Nc3cccc([C@]4(C)CC(=O)N(C5CCOCC5)C(=N)N4)c3Cl)ccc21 [Example 65, (6S)-6-{3-[(1-Acetylindolin-5-yl)amino]-2-chlorophenyl}-2-imino-6-methyl-3-(tetrahydro-pyran-4-yl)hexahydropyrimidin-4-one]",6.34,–
"C[C@@]1(c2cccc(Nc3cccc(-c4ccno4)c3)c2Cl)CC(=O)N(C2CCOCC2)C(=N)N1 [Example 61, (6S)-6-{2-Chloro-3-[3-(isoxazol-5-yl)anilino]phenyl}-2-imino-6-methyl-3-(tetrahydro-pyran-4-yl)hexahydropyrimidin-4-one]",6.12,–
"C[C@@]1(c2cccc(Nc3cnccc3C#N)c2Cl)CC(=O)N(C2CCOCC2)C(=N)N1 [Example 48, 3-{2-Chloro-3-[(4S)-2-imino-4-methyl-6-oxo-1-(tetrahydro-pyran-4-yl)hexahydropyrimidin-4-yl]anilino}pyridine-4-carbo-nitrile]",6.41,–
"CC(C)Oc1ccccc1Nc1cccc([C@]2(C)CC(=O)N(C3CCOCC3)C(=N)N2)c1Cl [Example 76, (6S)-6-[2-Chloro-3-(2-isopropoxyanilino)phenyl]-2-imino-6-methyl-3-(tetrahydro-pyran-4-yl)hexahydropyrimidin-4-one]",6.12,–
"C[C@@]1(c2cccc(Nc3ccc(-n4cncn4)nc3)c2Cl)CC(=O)N(C2CCOCC2)C(=N)N1 [Example 114, (6S)-6-(2-Chloro-3-{[6-(1,2,4-triazol-1-yl)pyridin-3-yl]-amino}phenyl)-2-imino-6-methyl-3-(tetrahydropyran-4-yl)hexahydropyrimidin-4-one]",6.28,–
"Cc1ncc(Nc2cccc([C@]3(C)CC(=O)N(C4CCOCC4)C(=N)N3)c2Cl)cc1C(F)(F)F [Example 93, (6S)-6-(2-Chloro-3-{[6-methyl-5-(trifluoromethyl)pyridin-3-yl]-amino}phenyl)-2-imino-6-methyl-3-(tetrahydropyran-4-yl)hexahydropyrimidin-4-one]",7.15,–
"C[C@@]1(c2cccc(Nc3ccc(Cl)cc3)c2Cl)CC(=O)N([C@H]2C[C@@](C)(O)C2)C(=N)N1 [Example 176, (6S)-6-[2-Chloro-3-(4-chloro-anilino)phenyl]-3-(3-hydroxy-3-methylcyclobutyl)-2-imino-6-methylhexahydropyrimidin-4-one]",6.34,–
"CC1(C)CC(N2C(=N)N[C@](C)(c3cccc(Nc4ccc(OC(F)F)nc4)c3Cl)CC2=O)CCO1 (single isomer, unassigned) [Example 144, (6S)-6-(2-Chloro-3-{[6-(difluoromethoxy)pyridin-3-yl]-amino}phenyl)-3-[(4S*)-2,2-dimethyltetrahydropyran-4-yl]-2-imino-6-methylhexahydro-pyrimidin-4-one]",–,6.31
"COc1ncc(Nc2cccc([C@]3(C)CC(=O)N(C4CCOCC4)C(=N)N3)c2Cl)cc1F [Example 49, (6S)-6-{2-Chloro-3-[(5-fluoro-6-methoxypyridin-3-yl)amino]-phenyl}-2-imino-6-methyl-3-(tetrahydropyran-4-yl)-hexahydropyrimidin-4-one]",6.33,–
"CC1(C#N)CC(N2C(=N)N[C@](C)(c3cccc(Nc4ccc(F)cc4)c3Cl)CC2=O)C1 [Example 181, 3-{(4S)-4-[2-Chloro-3-(4-fluoroanilino)phenyl]-2-imino-4-methyl-6-oxohexahydro-pyrimidin-1-yl}-1-methyl-cyclobutanecarbonitrile (cis isomer)]",–,6.70
"C[C@@]1(c2cccc(Nc3ccc(F)cc3C#N)c2Cl)CC(=O)N([C@H]2C[C@@](C)(O)C2)C(=N)N1 [Example 127, 2-{2-Chloro-3-[(4S)-1-(3-hydroxy-3-methylcyclobutyl)-2-imino-4-methyl-6-oxo-hexahydropyrimidin-4-yl]-anilino}-5-fluorobenzonitrile]",6.74,–
"C[C@@]1(c2cccc(Nc3ccc(C#N)cc3OC(F)F)c2Cl)CC(=O)N([C@H]2C[C@@](C)(O)C2)C(=N)N1 [Example 133, 4-{2-Chloro-3-[(4S)-1-(3-hydroxy-3-methylcyclobutyl)-2-imino-4-methyl-6-oxo-hexahydropyrimidin-4-yl]-anilino}-3-(difluoromethoxy)-benzonitrile]",6.25,–
"C[C@@]1(c2cccc(Nc3ccc(CC(F)(F)F)nc3)c2Cl)CC(=O)N(C2CCOCC2)C(=N)N1 [Example 119, (6S)-6-(2-Chloro-3-{[6-(2,2,2-trifluoroethyl)pyridin-3-yl]-amino}phenyl)-2-imino-6-methyl-3-(tetrahydropyran-4-yl)hexahydropyrimidin-4-one]",6.63,–
"Cc1ccc(Nc2cccc([C@]3(C)CC(=O)N([C@H]4CCO[C@H](C)C4)C(=N)N3)c2Cl)cn1 (single isomer, unassigned; peak 1) [Example 195, (6S)-6-(2-Chloro-3-[(6-methyl-pyridin-3-yl)amino]phenyl}-2-imino-6-methyl-3-[(2R*,4S*)-2-methyltetrahydropyran-4-yl]-hexahydropyrimidin-4-one (Peak 1)]",6.61,–
"C[C@@]1(c2cccc(Nc3ccc(C4CC4)nn3)c2Cl)CC(=O)N(C2CCOCC2)C(=N)N1 [Example 197, (6S)-6-{2-Chloro-3-[(6-cyclo-propylpyridazin-3-yl)amino]-phenyl}-2-imino-6-methyl-3-(tetrahydropyran-4-yl)-hexahydropyrimidin-4-one]",6.27,–
"COc1nc(C)ccc1Nc1cccc([C@]2(C)CC(=O)N(C3CCOCC3)C(=N)N2)c1Cl [Example 55, (6S)-6-{2-Chloro-3-[(2-methoxy-6-methylpyridin-3-yl)-amino]phenyl}-2-imino-6-methyl-3-(tetrahydropyran-4-yl)hexahydropyrimidin-4-one]",6.36,–
"CC(C)(C)c1ccc(Nc2cccc([C@]3(C)CC(=O)N(C4CCOCC4)C(=N)N3)c2Cl)cn1 [Example 105, (6S)-6-{3-[(6-tert-Butylpyridin-3-yl)amino]-2-chlorophenyl}-2-imino-6-methyl-3-(tetrahydro-pyran-4-yl)hexahydropyrimidin-4-one]",6.50,–
"C[C@@]1(c2cccc(Nc3ccccc3N=S(C)(C)=O)c2Cl)CC(=O)N(C2CCOCC2)C(=N)N1 [Example 109, (6S)-6-[2-Chloro-3-(2-{[dimethyl(oxo)-λ^6-sulfanylidene]amino}anilino)-phenyl]-2-imino-6-methyl-3-(tetrahydropyran-4-yl)-hexahydropyrimidin-4-one]",6.09,–
"C[C@@]1(c2cccc(Nc3ccc(OC(F)F)nc3)c2Cl)CC(=O)N([C@@H]2C[C@H]3CC[C@@H](C2)O3)C(=N)N1 (mixture of isomers) [Example 156, (6S)-6-(2-Chloro-3-{[6-(difluoromethoxy)pyridin-3-yl]-amino}phenyl)-2-imino-6-methyl-3-[(1SR,5RS)-8-oxa-bicyclo[3.2.1]octan-3-yl]-hexahydropyrimidin-4-one]",5.53,–
"C[C@@]1(c2cccc(Nc3ccn4nccc4c3)c2Cl)CC(=O)N(C2CCOCC2)C(=N)N1 [Example 91, (6S)-6-[2-Chloro-3-(pyrazolo-[1,5-a]pyridin-5-ylamino)-phenyl]-2-imino-6-methyl-3-(tetrahydropyran-4-yl)-hexahydropyrimidin-4-one]",6.05,–
"C[C@H]1C[C@H](N2C(=N)N[C@](C)(c3cccc(Nc4ccc(C5CC5)nc4)c3Cl)CC2=O)CCO1 (single isomer, unassigned; peak 2) [Example 194, (6S)-6-{2-Chloro-3-[(6-cyclo-propylpyridin-3-yl)amino]-phenyl}-2-imino-6-methyl-3-[(2S*,4R*)-2-methyltetrahydro-pyran-4-yl]hexahydropyrimidin-4-one (Peak 2)]",6.13,–
"C[C@@H]1C[C@@H](N2C(=N)N[C@](C)(c3cccc(Nc4ccc(C5CC5)nc4)c3Cl)CC2=O)CCO1 (single isomer, unassigned; peak 1) [Example 193, (6S)-6-{2-Chloro-3-[(6-cyclo-propylpyridin-3-yl)amino]-phenyl}-2-imino-6-methyl-3-[(2R*,4S*)-2-methyltetrahydro-pyran-4-yl]hexahydropyrimidin-4-one (Peak 1)]",6.83,–
"Cc1cc(Cl)c(Nc2cccc([C@]3(C)CC(=O)N(C4CCOCC4)C(=N)N3)c2Cl)cn1 [Example 110, (6S)-6-{2-Chloro-3-[(4-chloro-6-methylpyridin-3-yl)amino]-phenyl}-2-imino-6-methyl-3-(tetrahydropyran-4-yl)-hexahydropyrimidin-4-one]",6.64,–
"C[C@@]1(c2cccc(Nc3cccc4c3OC(F)(F)O4)c2Cl)CC(=O)N(C2CCOCC2)C(=N)N1 [Example 68, (6S)-6-{2-Chloro-3-[(2,2-difluoro-1,3-benzodioxol-4-yl)amino]phenyl}-2-imino-6-methyl-3-tetrahydropyran-4-yl-hexahydropyrimidin-4-one]",6.28,–
"C[C@@]1(c2cccc(Nc3ccc(C#N)cc3OC(F)F)c2Cl)CC(=O)N(C2CCOCC2)C(=N)N1 [Example 96, 4-{2-Chloro-3-[(4S)-2-imino-4-methyl-6-oxo-1-(tetrahydro-pyran-4-yl)hexahydropyrimidin-4-yl]anilino}-3-(difluoro-methoxy)benzonitrile]",6.71,–
"C[C@@]1(c2cccc(Nc3ccccc3S(C)(=O)=O)c2Cl)CC(=O)N(C2CCOCC2)C(=N)N1 [Example 43, (6S)-6-[2-Chloro-3-(2-methyl-sulfonylanilino)phenyl]-2-imino-6-methyl-3-(tetrahydro-pyran-4-yl)hexahydropyrimidin-4-one]",7.20,–
